Source: patent US20060147558A1, “Remedies” (priority 2000, published 2006)

What was measured:
[1] = tested on: HGF production of MRC-5 cells; test: enhancing activity for HGF production: MRC-5 cells cultured 24 h with sample, HGF in medium by ELISA; format: cell-based, human; conditions: for Amount of HGF Produced: control = 100%
Procedure: (1) The enhancing activity for HGF production of each of the bamboo blade extract (sample (1)) prepared in item (1) of Example 1, and the lower layer fraction (sample (2)) and the upper layer fraction (sample (3)) prepared in item (2) of Example 1 was assayed. Five-hundred microliters each of MRC-5 cells (CCL 171: manufactured by DAINIPPON PHARMACEUTICAL CO., LTD., code. 02-021) suspended in a DME medium containing 10% fetal bovine serum so as to have a concentration of 1×10^5 cells/ml were added into each well of a 48-well cell culture plate. The cells were cultured at 37° C. for 24 hours in the presence of 5% CO2, and then the medium was exchanged for a DME medium containing 1% fetal bovine serum. Thereafter, the sample was added to the medium, and the cells were further cultured for 24 hours. The medium was then collected, and by using Quantikine Human Hepatocyte Growth Factor (HGF) ELISA Kit (manufactured by Funakoshi, Code. RS-0641-00), the amount of HGF in the medium was determined. The amount of HGF produced was expressed, assuming that the value of the negative control is 100%. […] As the negative control, distilled water was added in the same volume as that of the sample. The amount of HGF produced was expressed, assuming that the value of the negative control is 100%. The results for the sample (1) are shown in Table 1, and the results for the sample (2) and the sample (3) are shown in Table 2. Each experiment was carried out twice, and its average value was taken. […] From the above, it was shown that the bamboo blade extract has an enhancing activity for HGF production.

[2] = tested on: NGF production of L-M cells; test: enhancing activity for NGF production: L-M cells cultured 20 h with sample, NGF in medium by enzyme immunoassay; format: cell-based, murine; conditions: for Amount of NGF Produced: control = 100%; for enhancing activity for NGF production: result in words, no value given
Procedure: L-M cells (ATCC CCL-1.2) from murine fibroblasts were suspended in an M199 medium (manufactured by ICN) containing 0.5% bactopeptone (manufactured by Gibco) so as to have a concentration of 1.5×10^5 cells/ml. The suspension was put in a 96 well plate in an amount of 0.1 ml each well, and the cells were aseptically cultured. After culturing the cells for 3 days, the medium was removed therefrom, and exchanged with an M199 medium containing 0.5% bovine serum albumin (manufactured by Sigma). […] After the termination of the culture, the concentration of the nerve growth factor in the culture medium was assayed by an enzyme immunoassay method (NGF Emax Immuno Assay System, manufactured by Promega). The enhancement for NGF production was expressed, assuming that the NGF concentration in the cell culture medium with no addition of the sample is 100%. The experiment was carried out twice, and an average value was taken. As a result, the yellow pigment from Carthamus tinctorius enhanced NGF production of the L-M cells in a concentration dependent manner.

Question: For `O=C(/C=C/c1ccc(O)c(O)c1)O[C@@H]1CC(O)(C(=O)O)C[C@@H](OC(=O)/C=C/c2ccc(O)c(O)c2)C1O` (stereo partly drawn) [3,5-Dicaffeoyl-quinic Acid, 3,5-dicaffeoyl-quinic acid], which “Amount of HGF Produced” value ([1]; 1 μM) is on record?
Answer: 142%

Question: What about the “Amount of HGF Produced” value ([1]; 10 μM) of the same compound?
Answer: 206%

Question: And the “Amount of HGF Produced” value ([1]; 100 μM)?
Answer: 290%

Question: `CC1(C)Oc2ccc3ccc(=O)oc3c2C(O)C1OC1OC(CO)C(O)C(O)C1O` [10 (62.2), 3′-O-β-D-glucopyranoyl khellactone] was tested. Which “Amount of NGF Produced” value ([2]; 2.0 mg/ml) did it give?
Answer: 565.5%

Question: For `CC(C)=CCc1c(O[C@@H]2O[C@H](CO)[C@@H](O)[C@H](O)[C@H]2O)ccc2ccc(=O)oc12` [13-2 (8.7), 7-O-β-D-glucopyranosyloxy-8-prenylcoumarin], which “Amount of NGF Produced” value ([2]; 1.0 mg/ml) is on record?
Answer: 792.1%

Question: How did the “Amount of NGF Produced” value ([2]; 0.25 mg/ml) turn out when `COC(=O)/C=C/c1ccc(O)c(O)c1` [18-3 (10.6), caffeic acid methyl ester] was run?
Answer: 3039.6%

Question: How did the “Amount of NGF Produced” value ([2]; 0.0375 mg/ml) turn out when `COc1ccc(C(=O)O)c2c1CC(O)C(C)(C)O2` (stereo not drawn) [18-4 (10.9), 8-carboxyl-3-hydroxy-5-methoxyl-2-dimethylchroman] was run?
Answer: 2510.4%

Question: Which “Amount of NGF Produced” value ([2]; 1.0 mg/ml) does the source give for `CC(C)=CCc1cc2ccc(=O)oc2cc1O[C@@H]1O[C@H](CO)[C@@H](O)[C@H](O)[C@H]1O` [19-, 20-5 (16.4), 7-β-D-glucopyranosyloxy-6-prenylcoumarin] here?
Answer: 487.9%

Question: Which “Amount of NGF Produced” value ([2]; 1.0 mg/ml) does the source give for `C/C=C(/C)C(=O)OC1c2c(ccc3ccc(=O)oc23)OC(C)(C)C1O[C@@H]1O[C@H](CO[C@@H]2O[C@H](CO)[C@@H](O)[C@H](O)[C@H]2O)[C@@H](O)[C@H](O)[C@H]1O` (stereo partly drawn) [19-, 20-6 (18.8), 4′-O-angeloyl-3′-O-[6-O-(β-D-glucopyranosyl)-β-D-glucopyranosyl]-khellactone] here?
Answer: 337.7%

Question: How did the “Amount of NGF Produced” value ([2]; 0.05 mg/ml) turn out when `CCOC(=O)/C=C/c1ccc(O)c(O)c1` [28 (91.4), caffeic acid ethyl ester] was run?
Answer: 1058.1%

Question: Which “Amount of NGF Produced” value ([2]; 62.5 μg/ml) does the source give for `CCOC(=O)/C=C/c1ccc(O)c(O)c1` [Caffeic acid ethyl ester, caffeic acid ethyl ester] here?
Answer: 1279.1%

Question: With `COC(=O)/C=C/c1ccc(O)c(O)c1` [Caffeic acid methyl ester, caffeic acid methyl ester] as the compound, how does the “Amount of NGF Produced” value ([2]; 62.5 μg/ml) read?
Answer: 824.4%

Question: How did the “Amount of HGF Produced” value ([1]; 1 μM) turn out when `O=C(/C=C/c1ccc(O)c(O)c1)O[C@@H]1C[C@](O)(C(=O)O)C[C@@H](O)[C@H]1O` [Chlorogenic Acid, chlorogenic acid] was run?
Answer: 105%

Question: What about the “Amount of HGF Produced” value ([1]; 10 μM) of the same compound?
Answer: 122%

Question: What about the “Amount of HGF Produced” value ([1]; 100 μM) of the same compound?
Answer: 302%

Question: What about the “Amount of HGF Produced” value ([1]; 500 μM) of the same compound?
Answer: 479%

Question: What about the “Amount of HGF Produced” value ([1]; 1000 μM) of the same compound?
Answer: 624%

Question: What about the “enhancing activity for HGF production” value ([1]; result in words, no value given) of the same compound?
Answer: enhancing activity for HGF production existed

Question: `COc1cc(O)c(CC=C(C)C)c2c1C(=O)CC(c1ccc(O)cc1)O2` (stereo not drawn) [Isoxanthohumol, isoxanthohumol] was tested. Which “Amount of NGF Produced” value ([2]; 50 μM) did it give?
Answer: 110.7%

Question: And the “Amount of NGF Produced” value ([2]; 100 μM)?
Answer: 121.4%

Question: What about the “Amount of NGF Produced” value ([2]; 200 μM) of the same compound?
Answer: 198.0%

Question: For `O=C1C([C@@H]2O[C@H](CO)[C@@H](O)[C@H](O)[C@H]2O)=C(O)/C(=C(O)/C=C/c2ccc(O)cc2)C(=O)C1(O)[C@@H]1O[C@H](CO)[C@@H](O)[C@H](O)[C@H]1O` (stereo partly drawn) [Safflomin A, safflomin A], which “Amount of NGF Produced” value ([2]; 2.5 mg/ml) is on record?
Answer: 130.7%

Question: And the “enhancing activity for NGF production” value [2]?
Answer: has the enhancing activity for NGF production

Question: Which “Amount of NGF Produced” value ([2]; 25 μM) does the source give for `CC(C)=CCC/C(C)=C/Cc1c(O)ccc(C(=O)/C=C/c2ccc(O)cc2)c1O` [Xanthoangelol, xanthoangelol] here?
Answer: 126.1%

Question: What about the “Amount of NGF Produced” value ([2]; 50 μM) of the same compound?
Answer: 202.6%

Question: What about the “Amount of NGF Produced” value ([2]; 100 μM) of the same compound?
Answer: 265.7%

Question: For `COc1cc(O)c(CC=C(C)C)c(O)c1C(=O)/C=C/c1ccc(O)cc1` [Xanthohumol, xanthohumol], which “Amount of NGF Produced” value ([2]; 12.5 μM) is on record?
Answer: 235.5%

Question: And the “Amount of NGF Produced” value ([2]; 25 μM)?
Answer: 387.9%

Question: What about the “Amount of NGF Produced” value ([2]; 50 μM) of the same compound?
Answer: 443.0%

Question: What about the “enhancing activity for NGF production” value [2] of the same compound?
Answer: has the activity
